Source: patent US10662204B2 (PFIZER INC., priority 2018, dated 2020)

Legend:
KRAS G12C = KRAS G12C (Homo sapiens, UniProt P01116, G12C); assay: Cell Activity Assay: accumulation of GDP-bound KRAS G12C in MIAPaCa-2 cells (Raf-1 RBD capture, MSD readout); type: cell-based; set-up: endogenous in cells; host or cells: MIAPaCa-2; conditions: 6 hours, assay limit is 30.00
Procedure: Compounds presented in the present invention lead to the accumulation of the GDP bound Ras upon treatment of human cancer cell line.
The accumulation of the GDP-bound KRAS G12C in cellular environment was measured based on the principle that KRAS G12C only binds to its downstream kinase; Raf-1 (MAP Kinase Kinase Kinase), when in its active-GTP bound state. In this state, Ras binded to a domain of Raf-1 kinase referred to as the Ras Binding Domain (RBD).
MIAPaCa-2 cells were grown in RPMI 1640 medium (Gibco 11875) supplemented with 10% fetal bovine serum and 1% penicillin/streptomycin. Cells were seeded in 96-well tissue culture plates at a density of 30,000 cells/well and allowed to attach for 16-24 hours. Test compounds were prepared as a 10 mM stock in DMSO and serially diluted in 100% DMSO using a 3-fold dilution scheme. An intermediate 5× concentrated plate in complete growth medium was made and 25 μl/well was added to the 100 μl of cells for a final concentration of 0.3% DMSO. Each concentration of exemplary compound was tested in duplicate. The negative control wells were cells with control inhibitor at 10 μM, and the positive control wells were cells without drugs, DMSO only. Plates were incubated for 6 hours at 37° C., 5% CO2. Following treatment, cells were washed 3× with ice-cold PBS and 115 μl/well ice-cold 1× Assay/Lysis. Buffer with protease inhibitors was added (25 mM HEPES, pH 7.5, 150 mM NaCl, 1% NP-40, 10 mM MgCl2, 1 mM EDTA, 2% Glycerol). Following lysis samples were frozen at −80° C.
Raf-1 RBD (LJIC-1988A1) was diluted to 100 ng/well in PBS and 5 μl/well was spot coated onto MSD high bind SECTOR plates (L15XB). Plates were incubated at room temperature for 1 hour on an orbital shaker. Plates were washed with PBS/0.05% Tween-20 and 50 μl/well of thawed lysate samples were added, followed by 50 μl of 1% MSD Blocker A in PBS/0.05 Tween-20 (R93BA). Plates were incubated for 1 hour on an orbital shaker and washed with PBS/0.05% Tween-20. 25 μl/well of Anti-pan-Ras Antibody (Cell Biolabs 244003) diluted 1:3000 was added in 1% MSD Blocker A solution and plates were incubated for 1 hour on an orbital shaker and washed with PBS/0.05% Tween-20. SULFO-TAG goat anti-mouse secondary antibody (MSD R32AC) was diluted 1:500 in MSD Blocker A solution and added at 25 μL/well. Plates were incubated for 1 hour on an orbital shaker and washed with PBS/0.05% Tween-20. 150 μl/well of Read Buffer T (MSD R92TC) diluted 1:3 in H2O was added and plates were read on a Meso Scale Discovery Sector Imager S600.
KRAS signal was normalized to maximum inhibition and DMSO control values, and IC50 values were generated using a 4 parameter fit of the dose response curve. The decrease in IC50 reflects that the exemplary compound lead to a higher level of accumulation of GDP-bound KRAS G12C than another exemplary compounds at specific timepoint of treatment of cancer cell line.

[1] = biological target: T1, GDP-loaded KRAS (1-169) G12C, C51S, C80L, C118S (Homo sapiens, UniProt P01116, C118S/C51S/C80L/G12C); assay: Mass Spectrometry Reactivity Assay (MSRA): covalent adduct of compound and KRAS G12C, Percent Modification; type: binding; conditions: for MSRA (% modification) 10 μM 0.50 hr / MSRA (% modification) 10 μM 0.25 hr: 10 μM compound; for MSRA (% modification) 5.0 μM 0.25 hr / MSRA (% modification) 5.0 μM 0.017 hr: 5.0 μM compound
T1 construct: GDP-loaded KRAS (1-169) G12C, C51S, C80L, C118S
Procedure: Mass Spectrometry Reactivity Assay (MSRA)
Compounds presented in the present invention covalently bind to KRAS G12C using MSRA to detect a covalent adduct of the exemplary compound and KRAS G12C.
GDP-loaded KRAS (1-169) G12C, C51S, C80L, C118S were diluted in the protein assay buffer 25 mM Hepes pH7.5, 200 mM NaCl, 5% glycerol to concentration of 5 μM and 20 μl of protein was transferred into 96-well plate. Initial compound stocks were generated at concentrations 100-fold higher that their desired assay concentrations. See K-Ras(G12C) inhibitors allosterically control GTP affinity and effector interactions; Ostrem J M, Peters U, Sos M L, Wells J A, Shokat K M; Nature. 2013, Nov. 28; 503(7477):548-51.
Exemplary compounds dissolved in DMSO were diluted 100-fold into solution containing 20 μl of 5 μM KRAS protein in the 96-well plate to initiate the reaction. Mosquito (TPP Lab tech) liquid handling robot was used to add compounds to protein solution. Typical final concentration of the compounds was 5 μM or 10 μM. The plates were placed on a shaker for 1 min at RT, sealed and incubated at room temperature for specified time period. 5 μl of reaction mix was added to 10 μl of 0.2% formic acid stop solution and mixed well. Typical end points were 1, 15, 30, and 60 min.
Data were collected using Waters Acquity H-class UPLC system/Xevo G2-XS TOF mass spectrometer. The protein was injected in their liquid phase onto a Bruker Microtrap protein column TR1/15109/03. The following buffers were used to set LC gradient: Buffer A: 0.2% formic acid H2O; B: 0.2% formic acid CAN. The protein was eluted from the column using the following LC Gradient: 0-0.4 min, 10% B to 30% B; 0.4 min-2.4 min, to 90% B, 2.5 min, 10% B, 3 min, 10% B. Initial data analysis was performed using MaxEnt software right after data acquisition.
The standard auto processing function was used to define percentage of unmodified and modified KRAS protein using MexEnt software right after data acquisition. The highest peak was defined as 100% while smaller peak as assigned the number defined by autoprocessing function. The percent of modification corresponding to modified with exemplary compound and unmodified KRAS GDP-loaded KRAS (1-169) G12C, C51S, C80L, C118S were exported to Xcel data analysis software.
The percent of modified protein at the defined concentration of exemplary compound was calculated using the following formula: % mod=Num of modified peak/Sum of modified+unmodified. The resultant value defined as Percent Modification (PM) and an increase in PM reflects that the specific compound is better than other compounds at specified compound concentration at a given time point.

SMILES	IC50 (KRAS G12C) [µM]	MSRA (% modification) 10 μM 0.50 hr [1] [%]	MSRA (% modification) 5.0 μM 0.25 hr [1] [%]	MSRA (% modification) 5.0 μM 0.017 hr [1] [%]	MSRA (% modification) 10 μM 0.25 hr [1] [%]
C=CC(=O)N1CCN(c2nc(N3CC(CN(C)C)C3)nc3c(Oc4c(C)ccc5[nH]ncc45)cccc23)CC1 [Example 10E, 1-[4-(2-{3-[(dimethylamino)methyl]azetidin-1-yl}-8-[(5-methyl-1H-indazol-4-yl)oxy]quinazolin-4-yl)piperazin-1-yl]prop-2-en-1-one]	2.32	21	–	–	–
C=CC(=O)N1CCN(c2nc(Oc3cccnc3CC)nc3c(Oc4c(Cl)c(F)cc5[nH]ncc45)nccc23)CC1 [Example 03I, 1-(4-{8-[(5-chloro-6-fluoro-1H-indazol-4-yl)oxy]-2-[(2-ethyl-pyridin-3-yl)oxy]pyrido[3,4-d]pyrimidin-4-yl}piperazin-1-yl)prop-2-en-1-one]	0.06	–	52	–	–
C=CC(=O)N1CCN(c2nc(NCCC(=O)NC)nc3c(Oc4c(C)ccc5[nH]ncc45)cccc23)CC1 [Example 13F, N^3-{4-(4-acryloylpiperazin-1-yl)-8-[(5-methyl-1H-indazol-4-yl)oxy]quinazolin-2-yl}-N-methyl-β-alaninamide]	17	26	–	–	–
C=CC(=O)N1CCN(c2nc(O[C@@H]3CN(C)CC[C@H]3C)nc3c(Oc4c(Cl)c(F)cc5[nH]ncc45)nccc23)CC1 (racemic) [Example 53I, rac-1-[4-(8-[(5-chloro-6-fluoro-1H-indazol-4-yl)oxy]-2-{[(3S,4R)-1,4-dimethyl-piperidin-3-yl]oxy}pyrido [3,4-d]pyrimidin-4-yl)piperazin-1-yl]prop-2-en-1-one]	0.059	–	–	15	–
C=CC(=O)N1CCN(c2nc(N3CC(N(C)C)C3)nc3c(Oc4c(Cl)c(C)cc5[nH]ncc45)cc(Cl)cc23)CC1 [Example 11E, 1-(4-{6-chloro-8-[(5-chloro-6-methyl-1H-indazol-4-yl)oxy]-2-[3-(dimethylamino)azetidin-1-yl]quinazolin-4-yl}piperazin-1-yl)prop-2-en-1-one]	3.95	68	–	–	–
C=CC(=O)N1CCN(c2nc(O[C@@H]3CN(C)C[C@H]3OC)nc3c(Oc4c(Cl)c(F)cc5[nH]ncc45)cccc23)CC1 [Example 01L, 1-[4-(8-[(5-chloro-6-fluoro-1H-indazol-4-yl)oxy]-2-{[(3R,4R)-4-methoxy-1-methylpyrrolidin-3-yl]oxy}quinazolin-4-yl)piperazin-1-yl]prop-2-en-1-one]	0.038	–	–	51	–
C=CC(=O)N1CCN(c2nc(O[C@@H]3CN(C)C[C@@H]3OC)nc3c(Oc4c(Cl)c(F)cc5[nH]ncc45)nc(Cl)cc23)CC1 (racemic) [Example 26G, rac-1-[4-(6-chloro-8-[(5-chloro-6-fluoro-1H-indazol-4-yl)oxy]-2-{[(3R,4S)-4-methoxy-1-methylpyrrolidin-3-yl]oxy}pyrido[3,4-d]pyrimidin-4-yl)piperazin-1-yl]prop-2-en-1-one]	0.195	–	–	35	–
C=CC(=O)N1CCN(c2ncnc3c(Oc4c(Cl)c(C)cc5[nH]ncc45)nc(C#N)cc23)CC1 [Example 19A, 4-(4-acryloylpiperazin-1-yl)-8-[(5-chloro-6-methyl-1H-indazol-4-yl)oxy]pyrido[3,4-d]pyrimidine-6-carbonitrile]	28	33	–	–	21
C=CC(=O)N1CCN(c2nc(OCc3cscn3)nc3c(Oc4c(C)ccc5[nH]ncc45)cccc23)CC1 [Example 23F, 1-(4-{8-[(5-methyl-1H-indazol-4-yl)oxy]-2-(1,3-thiazol-4-ylmethoxy)quinazolin-4-yl}piperazin-1-yl)prop-2-en-1-one]	0.944	–	55	–	66
C=CC(=O)N1CCN(c2nc(OC[C@@H]3CCC(=O)N3)nc3c(Oc4c(C)ccc5[nH]ncc45)cccc23)CC1 [Example 11F, (5S)-5-[({4-(4-acryloylpiperazin-1-yl)-8-[(5-methyl-1H-indazol-4-yl)oxy]quinazolin-2-yl}oxy)methyl]pyrrolidin-2-one]	8.14	55	–	–	34
C=CC(=O)N1CCN(c2nc(NCc3nncn3C)nc3c(Oc4c(C)ccc5[nH]ncc45)cccc23)CC1 [Example 02F, 1-[4-(8-[(5-methyl-1H-indazol-4-yl)oxy]-2-{[(4-methyl-4H-1,2,4-triazol-3-yl)methyl]amino}quinazolin-4-yl)piperazin-1-yl]prop-2-en-1-one]	> 30	14	–	–	–
C=CC(=O)N1CCN(c2nc(Oc3cccc4c3CCN(C3CC3)C4)nc3c(Oc4c(Cl)c(F)cc5[nH]ncc45)nccc23)CC1 [Example 55I, 1-(4-{8-[(5-chloro-6-fluoro-1H-indazol-4-yl)oxy]-2-[(2-cyclo-propyl-1,2,3,4-tetrahydro-isoquinolin-5-yl)oxy]pyrido [3,4-d]pyrimidin-4-yl}piperazin-1-yl)prop-2-en-1-one]	0.028	–	–	60	–
C=CC(=O)N1CCN(c2ncnc3c(Oc4cc(O)cc5ccccc45)nc(C)cc23)CC1 [Example 02, 1-(4-{8-[(3-Hydroxynaphthalen-1-yl)oxy]-6-methylpyrido[3,4-d]pyrimidin-4-yl}piperazin-1-yl)prop-2-en-1-one]	> 30	19	–	–	–
C=CC(=O)N1C[C@H](C)N(c2ncnc3c(Oc4c(Cl)c(F)cc5[nH]ncc45)nc(Cl)cc23)C[C@H]1C [Example 35A, 1-[(2R,5S)-4-{6-chloro-8-[(5-chloro-6-fluoro-1H-indazol-4-yl)oxy]pyrido[3,4-d]pyrimidin-4-yl}-2,5-dimethylpiperazin-1-yl]prop-2-en-1-one]	4.26	–	–	–	64
